For 21 molecules, IC50 results are on record in patent publication US20260070887A1 (Shenzhen Zhongge Biological Technology Co., Ltd., priority 2022, published 2026).

The target in one test is KIF18A (Homo sapiens (Human), UniProt Q8NI77). Description: KIF18A ATPase activity under tubulin stimulation (ADP-Glo assay). The following applies: KIF18A 30 nM, ATP 150 μM, pig microtubules. The format is biochemical. As to the method: This experiment assesses the inhibitory effect of the compounds of the present disclosure on the KIF18A target according to the IC50 values by measuring the KIF18A ATPase activity under tubulin stimulation with the presence of the compounds.
• 1. Preparation of 30 mL of reaction buffer: • (1) 450 μL 1M Tris-HCl (pH=7.5)+300 μL 1M MgCl2+30 μL 10% Pluronic F-68 (ThermoFisher, 24040032-100 ml); • (2) adjusting pH to 7.5, and adding water to adjust the volume to 30 mL. • 2. Preparation of a 5 mg/mL pig microtubule (Microtubules; MT) (Cytoskeleton Inc, MT002) stock solution: • (1) 10 mL PM buffer=150 μL 1 M PIPES (pH 7.0)+20 μL 0.5 mM MgCl2+100 μL 2 mM Taxol (Cytoskeleton Inc, TXD01)+9730 μL water. • (2) MT ([…]): Adding 100 μL PM buffer to prepare a 5 mg/mL stock solution. Keeping the MT (Cytoskeleton Inc, MT002) at room temperature for 10-15 minutes, gently mixing and storing same at −80° C. • 3. Preparation of 2 mL of kinase buffer: 2 mL reaction buffer+1 μL 2 mM Taxol (Cytoskeleton Inc, TXD01)+12 μL 5 mg/mL MT (Cytoskeleton Inc, MT002). • 4. Preparation of 2×KIF18A (30 nM) (ChemPartner, CPB-P22-31645) working solution: 2.4 μL 10 μM KIF18A (ChemPartner, CPB-P22-31645)+800 μL 1× kinase buffer. • 5. Preparation of 2×ATP (150 μM) (Promega, G9101) working solution: 12 μL 10 mM ATP+800 μL 1× kinase buffer. • 6. 25 nL of compound was transferred to a 384-well plate using Echo650. • 7. 2.5 μL of 2×KIF18A from Step 4 (final concentration of 30 nM) was added to the 384-well plate and the plate was incubated at 25° C. for 15 minutes. • 8. 2.5 μL of 2×ATP from Step 5 (final concentration of 150 μM) was added to the 384-well plate and the plate was incubated at 25° C. for 15 minutes. • 9. 5 μL ADP-Glo™ Reagent (Promega, G9101) was added to the 384-well plate and the plate was incubated at 25° C. for 40 minutes. • 10. 10 μL of kinase detection reagent (Promega, G9101) was added to the 384-well plate and the plate was incubated at 25° C. for 40 minutes. • 11. Luminescence values were measured using the EnVision Xcite Multilabel Reader (PerkinElmer, 2105-0020).
For orientation: ADP-Glo first removes unused ATP, then detects ADP through luciferase.

A further test has as its system OVCAR-3 cells. Description: OVCAR-3 cell proliferation (Cell Titer-Glo, 10 days). The class given is cell-based, human. Here is the method: The inhibitory effect on the KIF18A target by the compounds of the present disclosure was evaluated by testing the inhibitory effect on proliferation of OVCAR-3 cells by the compounds of the present disclosure.
The following method was used to determine the effect of the compounds of the present disclosure on the proliferation of human ovarian cancer cells Ovcar-3 (HTB-161, ATCC). Cells were cultured in RPMI-1640 complete medium containing 20% fetal bovine serum, 0.01 mg/mL bovine insulin, 100 U penicillin, and 100 μg/mL streptomycin. The Promega kit Cell Titer-Glo (Cat. No. G7572) was used in this method for test.
For specific steps, reference was made to the kit instructions, and the procedure was outlined below: Test compounds were dissolved in DMSO to prepare a 10 mM stock solution, which was diluted at the predetermined test concentrations, and the test compounds at different concentrations were added to a 384-well cell test plate using ECHO. In the plate pre-added with the test compounds, 400 OVCAR-3 cells in the logarithmic growth phase were seeded per well, ensuring the final concentration of the test compounds in the reaction system ranged between 0.12 nM and 10 μM. The co-culture was maintained in a cell culture incubator for 10 days. Before testing, the cell culture plate was equilibrated for 10 minutes at room temperature, 25 μL of Cell Titer-Glo was added to each well, and the mixture was shaken and mixed well and let stand for 5 minutes. The luminescence values for samples in various wells were read using a microplate reader in Luminescence mode.
The percentage of inhibition of cell proliferation by the test compound at each concentration was calculated by comparing with the values of the control group (0.1% DMSO). The IC50 values of the compounds were obtained by concentration-inhibition rate nonlinear regression analysis of the test compounds using GraphPad Prism 9.
(Cellular ATP, detected with luciferase, serves as a proxy for viable cell number.)

Where two headings read alike, the source gives them in different places.

Chain of KIF18A (Q8NI77 whole entry): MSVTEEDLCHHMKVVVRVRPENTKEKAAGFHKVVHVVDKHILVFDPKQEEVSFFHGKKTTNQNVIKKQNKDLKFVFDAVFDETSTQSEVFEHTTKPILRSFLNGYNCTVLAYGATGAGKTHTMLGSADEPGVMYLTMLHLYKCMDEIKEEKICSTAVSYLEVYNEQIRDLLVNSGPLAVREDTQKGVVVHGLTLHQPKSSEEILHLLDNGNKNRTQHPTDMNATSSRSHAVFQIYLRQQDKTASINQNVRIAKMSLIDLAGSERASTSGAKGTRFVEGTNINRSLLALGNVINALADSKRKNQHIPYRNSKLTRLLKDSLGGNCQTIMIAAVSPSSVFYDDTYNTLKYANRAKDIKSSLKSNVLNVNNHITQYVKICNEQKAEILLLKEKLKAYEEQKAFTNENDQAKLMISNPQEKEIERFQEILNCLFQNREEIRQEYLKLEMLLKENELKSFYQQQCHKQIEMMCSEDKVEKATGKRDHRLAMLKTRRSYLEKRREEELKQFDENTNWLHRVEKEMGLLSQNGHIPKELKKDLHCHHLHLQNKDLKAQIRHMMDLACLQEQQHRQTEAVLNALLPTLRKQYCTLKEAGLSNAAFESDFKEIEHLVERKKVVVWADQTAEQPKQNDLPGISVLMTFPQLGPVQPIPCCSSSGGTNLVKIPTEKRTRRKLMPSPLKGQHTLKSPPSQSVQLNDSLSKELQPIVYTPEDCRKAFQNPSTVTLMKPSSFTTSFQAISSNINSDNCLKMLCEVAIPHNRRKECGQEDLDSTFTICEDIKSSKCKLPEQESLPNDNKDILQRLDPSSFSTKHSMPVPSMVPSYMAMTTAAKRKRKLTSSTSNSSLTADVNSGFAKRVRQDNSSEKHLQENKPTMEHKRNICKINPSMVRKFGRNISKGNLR
Chain of KIF18A (P02550 whole entry partner): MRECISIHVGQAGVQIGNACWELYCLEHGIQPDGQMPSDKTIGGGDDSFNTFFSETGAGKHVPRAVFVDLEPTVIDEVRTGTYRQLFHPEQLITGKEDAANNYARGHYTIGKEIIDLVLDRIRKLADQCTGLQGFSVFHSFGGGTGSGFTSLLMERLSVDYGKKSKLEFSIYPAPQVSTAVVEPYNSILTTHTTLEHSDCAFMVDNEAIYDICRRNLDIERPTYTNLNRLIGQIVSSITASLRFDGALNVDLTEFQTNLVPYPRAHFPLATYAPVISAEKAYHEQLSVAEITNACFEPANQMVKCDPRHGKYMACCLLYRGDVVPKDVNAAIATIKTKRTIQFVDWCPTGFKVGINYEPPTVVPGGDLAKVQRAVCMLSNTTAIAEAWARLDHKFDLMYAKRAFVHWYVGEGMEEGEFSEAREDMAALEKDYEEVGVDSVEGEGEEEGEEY
Chain of KIF18A (P02554 whole entry partner): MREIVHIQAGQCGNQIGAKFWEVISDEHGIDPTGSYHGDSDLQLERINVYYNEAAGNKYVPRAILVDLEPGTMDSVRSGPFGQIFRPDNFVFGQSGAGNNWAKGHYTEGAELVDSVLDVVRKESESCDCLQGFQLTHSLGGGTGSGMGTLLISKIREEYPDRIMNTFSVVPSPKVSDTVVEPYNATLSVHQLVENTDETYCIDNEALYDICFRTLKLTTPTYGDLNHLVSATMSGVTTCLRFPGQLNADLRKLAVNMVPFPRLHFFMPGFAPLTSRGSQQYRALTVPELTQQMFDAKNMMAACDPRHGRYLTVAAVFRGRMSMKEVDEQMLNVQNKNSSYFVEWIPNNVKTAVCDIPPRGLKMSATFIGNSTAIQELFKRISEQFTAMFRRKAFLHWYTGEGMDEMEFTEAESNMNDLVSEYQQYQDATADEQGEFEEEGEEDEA

As for `CC1Cn2c(cc3c(NC(=O)c4ccc(NS(=O)(=O)CCO)cc4N4CCC5(CC4)CC5)cccc32)C(C)O1` (single isomer, unassigned) [Compound 312-P1, N-(1,3-dimethyl-3,4-dihydro-1H-[1,4]oxazino[4,3-a]indol-9-yl)-4-((2-hydroxyethyl)sulfonamido)-2-(6-azaspiro[2.5]oct-6-yl)benzamide], the IC50 on KIF18A was in the range of 0.05 to 0.5 µM; with OVCAR-3 cells (Homo sapiens, OVCAR-3, 240 h), 0.05 to 0.5 µM.

`CC1Cn2c(cc3c(NC(=O)c4ccc(NS(=O)(=O)CCO)cc4N4CCC5(CC4)CC5)cccc32)C(C)O1` (single isomer, unassigned) [Compound 312-P2B, N-(1,3-dimethyl-3,4-dihydro-1H-[1,4]oxazino[4,3-a]indol-9-yl)-4-((2-hydroxyethyl)sulfonamido)-2-(6-azaspiro[2.5]oct-6-yl)benzamide]: the IC50 on KIF18A and in the test on OVCAR-3 cells was 0.05 to 0.5 µM each time.

`[2H]C([2H])([2H])OC1c2cc3c(NC(=O)c4ccc(NS(=O)(=O)CCO)cc4N4CCC5(CC4)CC5)cccc3n2CCC1(F)F` (single isomer, unassigned) [Compound 385-P1, N-(8,8-difluoro-9-(methoxy-d3)-6,7,8,9-tetrahydropyridino[1,2-a]indol-1-yl)-4-((2-hydroxyethyl)sulfonamido)-2-(6-azaspiro[2.5]oct-6-yl)benzamide] displayed a 50% inhibitory concentration (IC50) with OVCAR-3 cells (Homo sapiens, OVCAR-3, 240 h) of 0.05 to 0.5 µM.

As for `[2H]C([2H])([2H])OC1c2cc3c(NC(=O)c4ccc(NS(=O)(=O)CCO)cc4N4CCC(=C(F)F)CC4)cccc3n2CCC1(F)F` (single isomer, unassigned) [Compound 386-P1, N-(8,8-difluoro-9-(methoxy-d3)-6,7,8,9-tetrahydropyridino[1,2-a]indol-1-yl)-2-(4-(difluoromethylene)piperidin-1-yl)-4-((2-hydroxyethyl)sulfonamido)benzamide], the IC50 on KIF18A and with OVCAR-3 cells was 0.5 to 5 µM each time.

On to `COC1c2cc3c(NC(=O)c4ccc(NS(=O)(=O)CCO)cc4N4CCC(=C(F)F)CC4)ccc(C#N)c3n2CCC1(F)F` (stereo not drawn) [Compound 427, N-(4-cyano-8,8-difluoro-9-methoxy-6,7,8,9-tetrahydropyridino[1,2-a]indol-1-yl)-2-(4-(difluoromethylene)piperidin-1-yl)-4-((2-hydroxyethyl)sulfonamide)benzamide], for which the IC50 with OVCAR-3 cells (Homo sapiens, OVCAR-3, 240 h) was 0.05 to 0.5 µM.

Take `O=C(Nc1ncnc2c1ccn2CC1CC1)c1ccc(NS(=O)(=O)CCO)cc1N1CCC2(CC1)CC2` [Example 34, N-(7-(cyclopropylmethyl)-7H-pyrrolo[2,3-d]pyrimidin-4-yl)-4-((2-hydroxyethyl)sulfonamido)-2-(6-azaspiro[2.5]octan-6-yl)benzamide]: the IC50 against KIF18A fell in the range of 0.5 to 5 µM.

Molecule `Cc1cc(NC(=O)c2ccc(NS(=O)(=O)CCO)cc2N2CCC3(CC2)CC3)c2ccn(CC3CC3)c2n1` [Example 37, N-(1-(cyclopropylmethyl)-6-methyl-1H-pyrrolo[2,3-b]pyridin-4-yl)-4-((2-hydroxyethyl)sulfonamido)-2-(6-azaspiro[2.5]oct-6-yl)benzamide] registered an IC50 against KIF18A of 0.05 to 0.5 µM.

`O=C(Nc1cccc2c1ccn2CC1CC1)c1ccc(NS(=O)(=O)CCO)nc1N1CCC2(CC1)CC2` [Example 38, N-(1-(cyclopropylmethyl)-1H-indol-4-yl)-6-((2-hydroxyethyl)sulfonamido)-2-(6-azaspiro[2.5]oct-6-yl)nicotinamide]: on KIF18A, the IC50 fell in the range of 0.05 to 0.5 µM.

Turning to `CNc1cc(NS(=O)(=O)CCO)cc(N2CCC3(CC2)CC3)c1C(=O)Nc1cccc2c1ccn2CC1CC1` [Example 39], the IC50 against KIF18A lay within 0.05 to 0.5 µM.

In turn, `CNc1cc(NS(=O)(=O)CCO)cc(N2CCC3(CC2)CC3)c1C(=O)Nc1ccnc2c1ccn2CC1CC1` [Example 40] registered an IC50 against KIF18A of 0.05 to 0.5 µM.

Turning to `Nc1cc(NS(=O)(=O)CCO)cc(N2CCC3(CC2)CC3)c1C(=O)Nc1cccc2c1CCN2CC1CC1` [Example 42], on KIF18A, the IC50 lay within 0.05 to 0.5 µM.

`CC1(NS(=O)(=O)c2ccc(C(=O)Nc3cccc4c3ccn4CC3CC3)c(N3CCC4(CC3)CC4)c2)COC1` [Example 44, N-(1-(cyclopropylmethyl)-1H-indol-4-yl)-4-(N-(3-methyloxetan-3-yl)sulfamoyl)-2-(6-azaspiro[2.5]oct-6-yl)benzamide] showed an IC50 at KIF18A of 0.05 to 0.5 µM.

In the case of `O=C(Nc1cccc(N2CCC(F)(F)CC2)c1)Nc1ccc(NS(=O)(=O)CCO)cc1N1CCC2(CC1)CC2` [Example 147, N-(4-(3-(3-(4,4-difluoropiperidin-1-yl)phenyl)urea)-3-(6-azaspiro[2.5]octan-6-yl)phenyl)-2-hydroxyethane-1-sulfonamide], the IC50 against KIF18A fell in the range of 0.5 to 5 µM.

Molecule `O=C(Nc1ccc2c(c1)N(CC1CC1)CC2)Nc1ccc(NS(=O)(=O)CCO)cc1N1CCC2(CC1)CC2` [Example 150, N-(4-(3-(1-(cyclopropylmethyl)indolin-6-yl)urea)-3-(6-azaspiro[2.5]octan-6-yl)phenyl)-2-hydroxyethane-1-sulfonamide] registered an IC50 on KIF18A of over 5 µM.

On KIF18A, `O=C(Nc1ccc2c(c1)CCN2CC1CC1)Nc1ccc(NS(=O)(=O)CCO)cc1N1CCC2(CC1)CC2` [Example 151, N-(4-(3-(1-(cyclopropylmethyl)indolin-5-yl)urea)-3-(6-azaspiro[2.5]octan-6-yl)phenyl)-2-hydroxyethane-1-sulfonamide] registered an IC50 of over 5 µM.

In turn, `CC(C)(C)Cn1ccc2c(NC(=O)c3ccc(NS(=O)(=O)CCO)cc3N3CCC4(CC3)CC4)cccc21` [Example 281, 4-((2-hydroxyethyl)sulfonamido)-N-(1-neopentyl-1H-indol-4-yl)-2-(6-azaspiro[2.5]octan-6-yl)benzamide] registered an IC50 against KIF18A of 0.5 to 5 µM.

Consider `O=C(Nc1cccc2c1ccn2CC1(C(F)(F)F)CC1)c1ccc(NS(=O)(=O)CCO)cc1N1CCC2(CC1)CC2` [Example 284], for which, at KIF18A, the IC50 lay within 0.5 to 5 µM.

The molecule `CC1(Cn2ccc3c(NC(=O)c4ccc(NS(=O)(=O)CCO)cc4N4CCC5(CC4)CC5)cccc32)CC1` [Example 285, 4-((2-hydroxyethyl)sulfonamido)-N-(1-((1-methylcyclopropyl)methyl)-1H-indol-4-yl)-2-(6-azaspiro[2.5]oct-6-yl)benzamide] yielded an IC50 against KIF18A of 0.05 to 0.5 µM.

In the case of `O=C(Nc1nccc2c1cc1n2CCOC1)c1ccc(NS(=O)(=O)CCO)cc1N1CCC2(CC1)CC2` [Example 306, N-(3,4-dihydro-1H-pyridino[3′,4′:4,5]pyrrolo[2,1-c][1,4]oxazin-9-yl)-4-((2-hydroxyethyl)sulfonamido)-2-(6-azaspiro[2.5]oct-6-yl)benzamide], the concentration for half-maximal inhibition (IC50) against KIF18A is over 5 µM.

In the test with OVCAR-3 cells (Homo sapiens, OVCAR-3, 240 h), `CC1(C)Cn2c(cc3c(NC(=O)c4cnc(NS(=O)(=O)CCO)cc4N4CCC5(CC4)CC5)cccc32)CO1` [Example 454, N-(3,3-dimethyl-3,4-dihydro-1H-[1,4]oxazino[4,3-a]indol-9-yl)-6-(2-hydroxyethylsulfonamide)-4-(6-azaspiro[2.5]octan-6-yl)nicotinamide] showed an IC50 of 0.05 to 0.5 µM.

`CC1(C)Cn2c(cc3c(NC(=O)c4ccc(NS(=O)(=O)CCO)cc4N4CCC(=C(F)F)CC4)ccc(Cl)c32)CO1` [Example 522, N-(6-chloro-3,3-dimethyl-3,4-dihydro-1H-[1,4]oxazino[4,3-a]indol-9-yl)-2-[4-(difluoromethylene)hexahydropyridin-1-yl]-4-{[(2-hydroxyethyl)sulfonamide]}benzamide] displayed an IC50 in the test on OVCAR-3 cells (Homo sapiens, OVCAR-3, 240 h) of 0.05 to 0.5 µM.

Usually IC50 stands for the concentration that inhibits the measured activity by half.
